Data on five molecules can be found in article PMC4428054, “A method for human teratogen detection by geometrically confined cell differentiation and migration” (Scientific Reports, 2015).

Data set [1] relates to micropatterned human pluripotent stem cell (μP-hPSC) colonies. Kind of data set: μP-hPSC model-based quantitative morphometric assay (disruption of annular mesoendoderm pattern). It is filed as cell-based. The settings on record: for DC value compared with known Cmax: DC in μP-hPSC model vs Cmax in human plasma; for Does DC < IC25H9?: comparison of DC with IC25 to H9 cells; for Morphologic cluster readouts across four test groups (one-way ANOVA, post-hoc): control, low, medium, high concentrations, day 3; for DC (disruption concentration): lowest concentration which morphologically disrupts the mesoendoderm pattern vs non-treated control, 3-day mesoendoderm induction; for Teratogenicity classification in the μP-hPSC model: teratogenic if DC < IC25,H9. The protocol: (§1) The dose-dependent effect of each compound on the mesoendoderm pattern formation was determined by dosing at four test conditions: zero, low, medium and high drug concentrations (Fig. 3i). The cytotoxicity of each compound was evaluated in order to find the appropriate range of testing concentrations. […] The results would represent specific cytotoxicity to embryonic and adult cells respectively. Based on the cytotoxicity data, three drug concentrations (designated as low, medium and high) were selected such that the lowest concentration tested was not toxic to both H9 cells and aHDFs, and the highest concentration should not be cytotoxic to aHDFs. The tested concentration was considered as not cytotoxic if it was less than the drug’s 25% inhibitory concentration (IC25) to the tested cell line[25].
A series of imaging processing and statistical analysis were developed to quantitatively measure the teratogenic effects of each drug (Fig. 3). After three days of culture in the mesoendoderm induction medium, immunofluorescence images of T were acquired (Fig. 3ii). We employed similar image quantification algorithms previously used for analyzing collagen deposition patterns in fibrotic tissues[26] to extract 19 morphological attributes that describe the annular mesoendoderm pattern (Fig. 3iii). […] A dose response plot was then generated for each morphologic cluster (Fig. 3iv). One-way analysis of variance (ANOVA) was performed to determine whether there were significant morphologic differences among test groups for each drug (Fig. 3v).
This concentration was defined as the disruption concentration (DC). If DC < IC25,H9, we can infer that the drug is teratogenic, where it affects embryonic development without being cytotoxic to embryonic cells.
The readouts of each morphologic cluster across the four test groups (i.e. control, low, medium, high) were plotted for each drug and one-way ANOVA was performed to determine whether there were significant differences across the test groups (Supplementary Fig. S7–S11).
The autoclaved PDMS stencil was first sealed onto a 60 mm petri dish (Nunc) using 200 μl of 70% ethanol. After drying in the cell culture hood, 450 μl Matrigel^TM in DMEM/F12 (11330032, GIBCO) was then added into each stencil and incubated for 5 hr at 37 °C before use. To obtain single cell suspension, the hPSC culture was treated with Accutase (SCR005, Merck Millipore) for about 10 min, and the cells were resuspended in mTeSR1 medium supplemented with 10 μM Y27632 (688000, Calbiochem, Merck Millipore). The cells were seeded onto the PDMS stencils at 100% confluence density of 4444 cells/mm^2 and allowed to attach for 1 hr. The stencil was then removed and the unpatterned substrate was passivated by backfilling with 0.5% Pluronic F-127 (P2443–1KG, Sigma-Aldrich) in DMEM/F12. After 10 min incubation, the μP-hPSC colonies were washed 3 times with DMEM/F12 and incubated at least for 3 hr in mTeSR^TM1 medium supplemented with 10 μM Y27632 before changed to mTeSR^TM1 medium alone. Differentiation was initiated 24 hr post seeding and lasted for 3 days before collecting the samples. For phase contrast live imaging, images were acquired every 20 min by BioStation CT (Nikon) using 10X objective. The imaging period started since the induction of differentiation and lasted for 3 days.
Morphological feature extraction from T fluorescence images was done in MATLAB Image Processing Toolbox (Mathworks). First, the outline of the μP-hPSC colony was identified by intensity difference compared with background and its centroid position was determined.

Details of data set [2]: method as in earlier work. Particulars: ref 30-34 (Table 1), Supplementary refs 1-5, cited from earlier work.
The test system of data set [3] is mouse embryonic stem cells (mESCs). Particulars: disruption of beating cardiomyocyte formation from mESCs; cited from earlier work.
For data set [4], the system named is H9 human embryonic stem cells. The data set can be described thus: Cytotoxicity assay (MTS) in H9 cells. The settings on record: for IC25H9: 25% inhibitory concentration, H9 cells, 3 days, MTS viability; for Cytotoxicity of tested concentration to hPSCs: Thalidomide 800 μM, Penicillin G 200 μg/ml. The data set is classed as cell-based. As to the method:
as §1
The cytotoxicity test was done in 96-well tissue culture plates with 100 μl of medium with or without the drug. For each drug, 8 concentrations with 5-fold dilution were tested together with the vehicle controls. For H9 cells, the plates were coated with Matrigel^TM before cell seeding. 10,000 hES cells or 1,000 aHDF cells were plated into each well and cultured for 3 days in the test solution with half change of the medium with or without the drug every day. On day 3, cell viability was measured using CellTiter 96® AQueous One Solution Cell Proliferation Assay (MTS, G3580, Promega). […] IC25 values were acquired from either logistic regression using OriginPro 9 or direct reading from the cytotoxicity curve.

For data set [5] the following is noted: human plasma, therapeutic dosing, cited from earlier work.
In data set [6] the test system is adult human dermal fibroblasts (aHDFs). Kind of data set: Cytotoxicity assay (MTS) in adult human dermal fibroblasts. The data set is classed as cell-based. Particulars: Thalidomide 800 μM; Penicillin G 200 μg/ml. The protocol: as §1
The cytotoxicity test was done in 96-well tissue culture plates with 100 μl of medium with or without the drug. For each drug, 8 concentrations with 5-fold dilution were tested together with the vehicle controls. For H9 cells, the plates were coated with Matrigel^TM before cell seeding. […] On day 3, cell viability was measured using CellTiter 96® AQueous One Solution Cell Proliferation Assay (MTS, G3580, Promega). […] IC25 values were acquired from either logistic regression using OriginPro 9 or direct reading from the cytotoxicity curve.

The test system of a further data set is μP-hPSC colonies. The data set can be described thus: Quantitative RT-PCR of germ layer markers in drug-treated μP-hPSC colonies. The data set is classed as cell-based, human. The settings on record: day 3; for Expression levels of MIXL1, GSC, NKX2.5, FOXA2, PAX6 and NESTIN / Expression level of mesoendoderm marker T compared to untreated control colonies / SOX17 expression level compared with untreated control colonies: Thalidomide 800 μM, Penicillin G 200 μg/ml; for Expression levels of MIXL1, GSC, NKX2.5, FOXA2, PAX6 and NESTIN: untreated control. The source says: Therefore, we reasoned that measuring changes in the mesoendoderm pattern, which is an assimilation of multiple cellular processes, as an assay readout for teratogenic potential, is sufficiently sensitive and may show better specificity as compared to the expression levels of a panel of molecular biomarkers for differentiation.
Total RNA was extracted from the samples on day 3 of the differentiation using the RNeasy® Plus Micro Kit (74034, QIAGEN) according to manufacturer’s protocol. Then cDNA was synthesized from the extracted RNA using High Capacity RNA-to-cDNA Kit (4387406, Applied Biosystems, Life Technologies). To analyze the gene expression levels of each sample, quantitative RT-PCR was performed using FastStart Universal SYBR Green Master (ROX) (04913914001, Roche) on the ABI 7500 Fast Real-Time PCR system (Applied Biosystems, Life Technologies) according to the manufacturer’s standard protocol. The relative quantitative expressions values of target genes were normalized to GAPDH and expressed relative to the levels of undifferentiated hPSCs using the ΔΔCT method. All primers used were commercially validated primers from GeneCopoeia^TM except for MIXL1, GSC, E-cadherin, N-cadherin, VIM, TWIST and SNAIL. The primer sequences/Catalogue numbers can be found in Supplementary Information (Supplementary Table S3).

Entries after “also recorded” stand apart in the source; their conditions may differ. Like-named read-outs stand apart in the source and are kept apart here. Some results are limits rather than exact numbers.

Usually Cmax stands for the peak of the concentration-time curve.

With `CC(C)(S)[C@@H](N)C(=O)O` [D-penicillamine], in data set [1], the “DC value compared with known Cmax” value was “lower than or equal to”; the “Does DC < IC25H9?” value is on record as “Yes”; the “Morphologic cluster readouts across four test groups (one-way ANOVA, post-hoc)” value is reported as “significant dose-dependent morphologic disruptions of the mesoendoderm pattern”; the “DC (disruption concentration)” value was 200 µg/mL. The “Teratogenicity classification in the μP-hPSC model” value in data set [1] is listed as “Teratogenic”. In data set [2], the “In vivo human data (teratogenicity)” value is “Teratogenic[32]”. In addition, the “In vivo human data (teratogenicity)” value in data set [2] (listed as D-Penicillamine) was “Teratogenic”. The “In mEST (teratogenicity classification)” value in data set [3] is on record as “non-terotogenic; also recorded: Non-teratogenic”. For the same molecule, the IC25H9 in data set [4] was determined as 278 µg/mL.
Regarding `CC1=C(/C=C/C(C)=C/C=C/C(C)=C/C(=O)O)C(C)(C)CCC1` [RA, Retinoic acid], in data set [5] (ref Muindi et al. (1992)), the maximum concentration (Cmax) was 347 ng/mL. In data set [1], the “DC value compared with known Cmax” value is recorded as “lower than or equal to”; the “Does DC < IC25H9?” value is reported as “Yes”; the “Morphologic cluster readouts across four test groups (one-way ANOVA, post-hoc)” value is listed as “significant dose-dependent morphologic disruptions of the mesoendoderm pattern”; the “DC (disruption concentration)” value came to 0.00036 µg/mL. Further, in data set [1], the “Teratogenicity classification in the μP-hPSC model” value was “Teratogenic”. In addition, in data set [2], the “In vivo human data (teratogenicity)” value is “Teratogenic[31]”. In data set [2] (listed as Retinoic acid), the “In vivo human data (teratogenicity)” value is listed as “Teratogenic”. Further, in data set [3], the “In mEST (teratogenicity classification)” value was “Teratogenic”. For the same molecule, the IC25H9 in data set [4] was over 2 µg/mL.
Turning to `CC1(C)S[C@@H]2[C@H](NC(=O)Cc3ccccc3)C(=O)N2[C@H]1C(=O)O` [Penicillin G], the “Cytotoxicity of tested concentration to human adult fibroblasts” value in data set [6] was “non-cytotoxic”. In the data set on μP-hPSC colonies, the “Expression levels of MIXL1, GSC, NKX2.5, FOXA2, PAX6 and NESTIN” value is given as “no significant differences”; the “Expression level of mesoendoderm marker T compared to untreated control colonies” value is listed as “higher expression level”; the “SOX17 expression level compared with untreated control colonies” value is recorded as “no significant difference”. In data set [1] (1,000 μg/ml vs zero dose control, post-hoc p = 0.001), the “Mesoendoderm pattern position (CL6) in high concentration test group” value is recorded as “significant inward mesoenoderm pattern position toward the colony centre”. Besides, in data set [1], the “DC value compared with known Cmax” value is reported as “much higher”; the “Does DC < IC25H9?” value is “much higher and No”; the “Morphologic cluster readouts across four test groups (one-way ANOVA, post-hoc)” value was “no significant differences among test groups in almost all morphologic clusters except CL6”; the “Teratogenicity classification in the μP-hPSC model” value is recorded as “Non-teratogenic”. Also, in data set [4], the IC25H9 stood at 787 µg/mL and the “Cytotoxicity of tested concentration to hPSCs” value was “non-cytotoxic”.
Regarding `CCCC(CCC)C(=O)O` [VPA, Valproic acid], in data set [5] (ref Reed et al. (2006), read-out: Cmax), the Cmax is 574 µM. In data set [1], the “DC value compared with known Cmax” value is recorded as “lower than or equal to”; the “Does DC < IC25H9?” value was “Yes”; the “Morphologic cluster readouts across four test groups (one-way ANOVA, post-hoc)” value is given as “significant dose-dependent morphologic disruptions of the mesoendoderm pattern”; the “DC (disruption concentration)” value worked out at 0.1 mM. Besides, in data set [2], the “In vivo human data (teratogenicity)” value is listed as “Teratogenic”. In data set [4], the IC25H9 was found to be 0.13 mM.
As for `O=C1CCC(N2C(=O)c3ccccc3C2=O)C(=O)N1` (centres unmarked) [Thalidomide], the “Cytotoxicity of tested concentration to human adult fibroblasts” value in data set [6] is “non-cytotoxic”. Besides, the “Expression level of definitive endoderm marker SOX17 compared with Penicillin G-treated colonies” value with μP-hPSC colonies (Thalidomide 800 μM vs Penicillin G 200 μg/ml) is listed as “significantly lower”. For the same molecule, in the data set with μP-hPSC colonies, the “Expression levels of MIXL1, GSC, NKX2.5, FOXA2, PAX6 and NESTIN” value is “no significant differences”; the “Expression level of mesoendoderm marker T compared to untreated control colonies” value was “higher expression level”; the “SOX17 expression level compared with untreated control colonies” value was “no significant difference”. The Cmax in data set [5] (ref Teo et al. (2004), read-out: Cmax) was 10.9 µM. The “Collective cell migration trajectory (live imaging and kymograph)” value in data set [1] (Thalidomide 800 μM, Penicillin G 200 μg/ml, 3-day live imaging, vs untreated colonies) is “migrated much more towards the colony center”. Also, in data set [1] (Thalidomide 800 μM, Penicillin G 200 μg/ml, vs untreated colonies), the “Mesoendoderm pattern morphology (T+ cells) after 3 days” value is reported as “much wider mesoendoderm pattern that was displaced towards the colony center”. Also, in data set [1], the “Does DC < IC25H9?” value is given as “Yes”; the “Morphologic cluster readouts across four test groups (one-way ANOVA, post-hoc)” value is on record as “significant dose-dependent morphologic disruptions of the mesoendoderm pattern”; the “DC (disruption concentration)” value was 0.03 mM; the “Teratogenicity classification in the μP-hPSC model” value is given as “Teratogenic”. Also, in data set [2], the “In vivo human data (teratogenicity)” value is “Teratogenic[30]”. The “In mEST (teratogenicity classification)” value in data set [3] is “cannot be detected”. In data set [4], the IC25H9 is over 1 mM and the “Cytotoxicity of tested concentration to hPSCs” value is recorded as “non-cytotoxic”.
